{"source": "patent US20260242390A1", "about": "“TOTAL SYNTHESES OF PORTIMINE A AND ANALOGUES THEREOF AS SMALL MOLECULE MODULATORS OF NMD3” (priority 2023, published 2026)", "key": {"HCC1806": {"tested_on": "HCC1806", "experiment": "Broad cell line profiling, HCC1806", "assay_type": "cell-based", "conditions": "Homo sapiens; HCC1806, Acantholytic Squamous Carcinoma; read-out: PA IC50", "text": "(§1) • A panel of human and mouse cancer cell types used to assess the breadth of PA activity, including multiple therapy resistant metastatic mesenchymal tumor cell lines and primary glioblastoma patient-derived metastatic stem/tumor initiating cell populations."}, "LNCaP": {"tested_on": "LNCaP", "experiment": "Broad cell line profiling, LNCaP", "assay_type": "cell-based", "conditions": "Homo sapiens, Prostate Carcinoma, read-out: PA IC50", "text": "as §1"}, "4T1": {"tested_on": "4T1", "experiment": "Broad cell line profiling, 4T1", "assay_type": "cell-based", "conditions": "4T1, Mouse Mammary Carcinoma; read-out: PA IC50", "text": "as §1"}, "NMD3 mRNA": {"tested_on": "NMD3 mRNA", "experiment": "NMD3 mRNA level in cells", "assay_type": "cell-based, human", "description": "(§2) FIG. 6. Portimine A inhibits S phase entry in Jurkat cells. Portimine A downregulates NMD3 at protein level but upregulates in mRNA level in cells, as well as some essential apoptosis proteins. […] Protein degradation of p53, Mcl1, Bid, Bim, Noxa can be rescued by MG132 or Epoxomicin. (B) NMD3 mRNA increased after PA treatment, but not ePA control compound. Jurkat cells were treated with indicated compounds for 24 hr; Cells were then fixed and perform Propidium Iodide staining.\n(§3) • 1) Portimine A and its functional analogs show stereo-selective acute toxicity in cancer cells (FIG. 1). […] (B) Structure of portimine related analogs: phenyl-portimine A (Ph-PA, 36) and epi-portimine A (ePA, 38). Structure of fully functionalized portimine A-based epimeric probe pair: portimine A-diazirine-alkyne (PA-DA, 35-2) and epi-portimine A-diazirine-alkyne (ePA-DA, 35-1). (C) Cell viability analysis of portimine A and analogs. Jurkat cells were treated with increasing concentrations of portimine A and analogs for 24 hours. All presented data as mean of biological replicated experiments (n=3). […] Jurkat cells were treated with portimine A or analogs for 12 hours at 10 nM. […] Cell lysates were fractionated by sucrose gradient (5-50%) and each fraction were analyzed by western blot. eIF6 levels increase in 60S subunit fraction and decrease in ribosome-free fractions after PA treatment. […]"}, "Bcl-xl": {"tested_on": "Bcl-xl", "experiment": "Bcl-xl protein level in cells", "assay_type": "cell-based, human", "description": "as §2, §3"}}, "note": "pIC50: −log10 of the molar value."}
{"smiles": "C=CC1=C[C@@H]2[C@@H]3O[C@]4(CC[C@H](O4)C(C)C[C@@H](O)C3=O)CC(O)C3=NCC[C@@]32CC1", "note": "(some centres unmarked) [PA, portimine A]", "values": [{"measurement": "pIC50", "setting": "HCC1806", "result": 9.14}, {"measurement": "pIC50", "setting": "LNCaP", "result": 8.77}, {"measurement": "pIC50", "setting": "4T1", "result": 9.20}, {"measurement": "NMD3 mRNA", "setting": "NMD3 mRNA", "result": "increased"}, {"measurement": "Bcl-xl protein level after treatment", "setting": "Bcl-xl", "result": "downregulated"}]}
